Results published in PubChem BioAssay (NCI).
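Method: 48-hour compound exposure of cells in 96-well plates, five concentrations, linear interpolation of endpoints. TGI marks complete inhibition of growth.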 Where a SMILES comes first, the peptide text is derived from it. The star is where a group is joined. Boc = CC(C)(C)OC(=O)*; OSu = O=C1CCC(=O)N1O*

Key:
Test in all cases: NCI-60 cell line screen, 48 h
HS 578T breast = tested on: HS 578T breast
IGROV1 ovarian = tested on: IGROV1 ovarian
A549 NSCLC = tested on: A549 NSCLC
MALME-3M melanoma = tested on: MALME-3M melanoma
SNB-75 CNS = tested on: SNB-75 CNS
RXF 393 renal = tested on: RXF 393 renal
UACC-62 melanoma = tested on: UACC-62 melanoma
LOX IMVI melanoma = tested on: LOX IMVI melanoma
SW-620 colon = tested on: SW-620 colon
RPMI-8226 leukemia = tested on: RPMI-8226 leukemia

| Structure (SMILES) | TGI (HS 578T breast) | TGI (IGROV1 ovarian) | TGI (A549 NSCLC) | TGI (MALME-3M melanoma) | TGI (SNB-75 CNS) | TGI (RXF 393 renal) | TGI (UACC-62 melanoma) | TGI (LOX IMVI melanoma) | TGI (SW-620 colon) | TGI (RPMI-8226 leukemia) |
| --- | --- | --- | --- | --- | --- | --- | --- | --- | --- | --- |
| CC(O)c1cc2c(s1)C(=O)c1sccc1C2=O (stereo not given) | > 100 µM | 0.725 µM | 0.767 µM | 0.0486 µM | 0.218 µM | 0.351 µM | 0.126 µM | 0.29 µM |  |  |
| NC(CCCC(N)P(=O)(O)c1ccccc1)P(=O)(O)c1ccccc1 (stereo not given) |  | > 261 µM | > 261 µM | > 261 µM | > 261 µM | > 261 µM | > 261 µM | > 261 µM | > 261 µM | > 261 µM |
| CC(NC(=O)C(NC(=O)OC(C)(C)C)C(C)C)C(=O)NCC(=O)ON1C(=O)CCC1=O (stereo not drawn) (Boc-Val-Ala-Gly-OSu; configuration not given here) |  | > 100 µM | > 100 µM | > 100 µM | > 100 µM | > 100 µM | > 100 µM |  | > 100 µM | > 100 µM |
| O=C1CC2(c3ccccc3)ON=C(c3ccccc3)N2c2ccccc2N1 (stereo not given) |  | > 100 µM |  | > 100 µM | > 100 µM | > 100 µM | > 100 µM | > 100 µM | > 100 µM | > 100 µM |
| Cc1cccc2c(=O)c([Se]c3coc4c(C)cccc4c3=O)coc12 |  | 26.5 µM | 23.9 µM | 33.6 µM | 31.3 µM | 32.2 µM | 33.1 µM | 35.5 µM | 39.1 µM | > 100 µM |
| COC(=O)C(Cc1c[nH]c2ccccc12)NC(=O)C(Cc1c[nH]c2ccccc12)NC(=O)C(Cc1c[nH]c2ccccc12)NC(=O)C(Cc1c[nH]c2ccccc12)NC(=O)C(Cc1c[nH]c2ccccc12)NC(=O)C(Cc1c[nH]c2ccccc12)NC(=O)OC(C)(C)C (stereo not given) (Boc-WWWWWW-OMe; configuration not given here) |  | > 100 µM | > 100 µM | > 100 µM | > 100 µM |  | > 100 µM | > 100 µM | > 100 µM | > 100 µM |
| COC(=O)C1C/C(=C/N(C)C)C(=S)N1 (stereo not given) | > 100 µM | > 100 µM | > 100 µM | > 100 µM | > 100 µM | > 100 µM | > 100 µM |  | > 100 µM | > 100 µM |
| N#CCc1n[nH]c(Cc2ccccc2)n1 | > 100 µM | > 100 µM | > 100 µM | > 100 µM | > 100 µM | > 100 µM | > 100 µM | > 100 µM | > 100 µM |  |
| Cc1ccsc1/C=N/Nc1nc2ccccc2s1 | 78.2 µM | 23.5 µM | 50.5 µM |  | 35.6 µM | 29 µM | > 100 µM | > 100 µM | 94.9 µM | 72.2 µM |
| O=C(c1ccc(Cl)cc1)c1ccc(OCCCOc2ccc(C(=O)c3ccc(Cl)cc3)cc2)cc1 |  | > 100 µM | > 100 µM | > 100 µM | > 100 µM | > 100 µM | > 100 µM | > 100 µM | > 100 µM | > 100 µM |
| COC(=O)c1c(O)ccc2c1c1c(n2Cc2ccccc2Cl)C(=O)c2ccccc2C1=O | 59 µM | 28.3 µM | 26.7 µM | 31.4 µM |  | 41.3 µM | 30.2 µM |  |  | 29.5 µM |
| O=C1c2ccc(O)cc2C(=O)c2ccc(O)cc21 |  | > 100 µM | > 100 µM | > 100 µM | 81.5 µM | 91.8 µM | > 100 µM | > 100 µM | > 100 µM | > 100 µM |
| COc1cc(C2c3cc4c(cc3[C@@H](Nc3ccccc3)C3COC[C@H]23)OCO4)cc(OC)c1O (stereo not given in full) | 12.4 µM | > 100 µM | 14 µM |  | 11.9 µM |  |  |  | > 100 µM | 5.22 µM |
| Cc1cnc2sn(-c3ccc(Oc4ccccc4)cc3)c(=O)c2c1 | 50.9 µM | 45.5 µM | 46 µM | 9.07 µM | 34.5 µM |  | 30.7 µM | 81 µM | 70.7 µM | > 100 µM |
| COC(=O)C1Cc2c(OC)ccc(OC)c2CC(C(=O)OC)C1=O (stereo not given) | > 100 µM | > 100 µM | > 100 µM | > 100 µM | > 100 µM | > 100 µM | > 100 µM |  | > 100 µM | > 100 µM |
| C[n+]1c(-c2ccc(/C=N/NC(=N)N/N=C/c3ccc(-c4cn5cc(Cl)ccc5[n+]4C)cc3)cc2)cn2cc(Cl)ccc21 | > 100 µM | > 100 µM | > 100 µM |  | > 100 µM |  |  |  | > 100 µM | > 100 µM |
| Cc1nc(C)c(C(=O)NNC(N)=S)cc1C(=O)NNC(N)=S | > 100 µM | > 100 µM | > 100 µM |  |  | > 100 µM | > 100 µM | > 100 µM | > 100 µM | > 100 µM |
| Cc1[nH]c2c(c1C)S(=O)(=O)c1cc3ccccc3nc1N2 |  | 28 µM | > 100 µM | 45.2 µM | 45.7 µM | 66.8 µM | > 100 µM | 36.4 µM | > 100 µM | 40.4 µM |
| CCN(CC)CC1CCCCN1CC(=O)N1c2ccccc2NC(=O)CC1C (stereo not given) | > 100 µM | > 100 µM | > 100 µM | > 100 µM |  | > 100 µM |  | > 100 µM | > 100 µM | > 100 µM |
| BrCCCCCOc1ccc(-c2c3ccccc3c(-c3ccc(OCCCCCBr)cc3)c3ccccc23)cc1 | > 100 µM | > 100 µM | > 100 µM |  | > 100 µM | > 100 µM | > 100 µM |  | > 100 µM | > 100 µM |
| O=C(c1ccco1)N1CCCN(C(=O)c2ccco2)C1=S | > 100 µM | > 100 µM |  | > 100 µM |  | > 100 µM | > 100 µM | > 100 µM | > 100 µM | > 100 µM |
| C[C@]12CCC(=O)C=C1CC[C@@H]1[C@@H]2[C@@H](O)C[C@@]2(C)[C@H]1CC[C@]2(O)C(=O)COC(=O)COCC(=O)O |  | > 100 µM | > 100 µM | > 100 µM | > 100 µM |  | > 100 µM | > 100 µM | > 100 µM | > 100 µM |
| CCC(CON(C)c1ccccc1)(SC)SC | > 100 µM | > 100 µM | > 100 µM | > 100 µM | > 100 µM |  | > 100 µM | > 100 µM | > 100 µM | > 100 µM |
